Reference: US20130096160A1, “ARYLTHIAZOLYL PIPERIDINES AND RELATED COMPOUNDS AS MODULATORS OF SURVIVAL MOTOR NEURON (SMN) PROTEIN PRODUCTION” (Secretary, Department of Health and Human Services, priority 2010, published 2013)

Experiments:
[1] = test system: human SMN protein; assay: Western blot of SMN protein in SMA patient fibroblasts (3813); type: cell-based; settings: SMA patient cells (3813), 0.1-10 μM, FIG. 2
Procedure: Type I spinal muscular atrophy (SMA)-affected human primary fibroblasts (#GM03813) and carrier parents (#GM03814, parent and #GM03815, […]) are obtained live with low passage number from Coriell Cell Repositories. […] For detection of SMN protein in patient fibroblasts, 8,000 cells per cm^2 are plated 24 hours prior to drug addition. Fresh media and compound are added every 24 hours. After 72 hours, cells are harvested, washed with cold PBS, and lysed. Samples are subjected to polyacrylamide gel electrophoresis (PAGE). It is determined that 10 μg total protein per lane is within the linear range for immunoblot detection of SMN and alpha-tubulin. Western blots of the gel are probed for SMN with the 4B7 mouse monoclonal antibody (from the lab of Christian Lorson). A goat anti-mouse antibody (Santa Cruz Biotechnology/#sc-2005) conjugated to horseradish peroxidase (HRP) is used as the secondary antibody. Quantification of protein is performed by detecting chemiluminescence with a Fujifilm LAS-4000 Multifunctional Imaging System. […] We incubated a fibroblast cell line from a type I SMA patient (3813 cell line) with different doses of analogues and assessed the SMN protein level by quantitative western blotting (FIG. 4). We observed that analogue 8 m at concentration of 37 nanomolar increased the SMN protein level by 2-3 fold. […] This could be due with the intrinsic mechanism of action or to other causes, such us concentration dependent compound solubility.

[2] = test system: SMN2-luciferase reporter; assay: SMN2-luciferase reporter qHTS assay; type: cell-based, human; settings: SMN2-luc reporter, FIG. 1
Procedure, shortened: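 SMN2 exon-7 splicing firefly-luciferase reporter cell line, ~2000 cells/well in phenol-red-free DMEM with 10% serum, allowed to adhere 10–12 h, then exposed to compounds for 2 days at 37 C, 5% CO2. Seven-point five-fold dilution series (e.g. 50 μM to 3.2 nM), OneGlo luminescence read, curves fitted to Hill equation.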

## NC(=O)C1CCN(c2nc(-c3ccc(Br)cc3)cs2)CC1 [MLS000698854]
[1]
  SMN protein by Western blot (in words): concentration-dependent increase in SMN protein
[2]
  expression of SMN2 / levels of the full length SMN2 gene (in words): increases the expression of SMN2
